Laboratory results as given in publication PMC12797170, “Potent Competitive Inhibitors of Ecto-5′-nucleotidase (CD73) based on 6‑(Het)aryl-7-deazapurine Ribonucleoside 5′‑O‑Bisphosphonates” (ACS Pharmacology & Translational Science, 2025).

How the values were obtained:
in vitro = details: mouse, plasma
CD8+ T cells = test: CD8+ T cell activation assay (CD25, IFN-γ, granzyme B); assay type: cell-based, human; details: granzyme B and IFN-γ, 60 h
Procedure: 6 CD73 inhibition partially reverses the immunosuppressive effect of adenosine generated from AMP in CD8 ^ + T cells. CD8^+ T cells were activated using CD3/CD28 activation beads in the presence of 2.5 μM EHNA, with or without 1 mM AMP and CD73 inhibitors (500 nM or 50 nM). A. CD25 expression. The percentage of CD8^+ T cells expressing the activation marker CD25 was measured by flow cytometry 60 h after activation. Data represent technical triplicates. B. Cytokine secretion. Granzyme B and IFN-γ levels in the culture supernatant were quantified by ELISA 60 h after activation. The data represent technical duplicates from two independently treated wells.
Peripheral blood was obtained from healthy donors at the Military University Hospital Prague, following informed consent. CD8+ T cells were enriched using the RosetteSep Human CD8+ T Cell Enrichment Cocktail ([…] Technologies) according to the manufacturer’s instructions and subsequently isolated by density gradient centrifugation using SepMate tubes ([…] Technologies). Residual red blood cells were lysed using a red blood cell lysis buffer (155 mM NH4Cl, 12 mM NaHCO3, 0.1 mM EDTA, pH = 7.1–7.4). The isolated CD8+ T cells were resuspended in complete RPMI and counted using an automated cell counter.
CD8+ T cells were seeded at 5 × 10^4 cells/well in 50 μL of complete RPMI in a flat-bottom 96-well plate. […] This was followed by the addition of 10 μL of a CD73 inhibitor at either 5 μM or 500 nM (experimental wells) or 10 μL of complete RPMI (control wells). Subsequently, 20 μL of 5 mM AMP was added to all wells except those serving as controls for maximal T cell activation. […]
Following incubation, supernatants were collected for quantification of IFN-γ and granzyme B using ELISA. […] Finally, stained cells were washed and analyzed using a BD LSRFortessa flow cytometer. Data were processed and analyzed using FlowJo software (version 10.8.1) and GraphPad Prism 10.
Secretion of IFN-γ and granzyme B was quantified using Human IFN-γ DuoSet ELISA and Human Granzyme B DuoSet ELISA (R&D Systems) according to the manufacturer’s instructions. […]

With `O=P(O)(O)CP(=O)(O)OC[C@H]1O[C@@H](n2ccc3c(-c4ccc5ccccc5c4)ncnc32)[C@H](O)[C@@H]1O` [4A.7] the half-life at 10 µM (in vitro) was > 2 h.

For `O=P(O)(O)CP(=O)(O)OC[C@H]1O[C@@H](n2ccc3c(-c4cccc5ccncc45)ncnc32)[C@H](O)[C@@H]1O` [4A.18], the half-life at 10 µM (in vitro) was > 2 h.

With `O=P(O)(O)CP(=O)(O)OC[C@H]1O[C@@H](n2ccc3c(-c4cccc5c4CCCC5)nc(Cl)nc32)[C@H](O)[C@@H]1O` [7B.12] the half-life at 10 µM (in vitro) was > 2 h.

With `O=P(O)(O)CP(=O)(O)OC[C@H]1O[C@@H](n2ccc3c(-c4ccc5c(c4)CCCC5)nc(Cl)nc32)[C@H](O)[C@@H]1O` [7B.23] the half-life at 10 µM (in vitro) was > 2 h.

For `O=P(O)(O)CP(=O)(O)OC[C@H]1O[C@@H](n2ccc3c(-c4ccc(F)c5ccccc45)nc(Cl)nc32)[C@H](O)[C@@H]1O` [7B.28], the half-life at 10 µM (in vitro) was > 2 h.

In the case of `Cc1nc(-c2cccc3ccccc23)c2ccn([C@@H]3O[C@H](COP(=O)(O)CP(=O)(O)O)[C@@H](O)[C@H]3O)c2n1` [18E.6], the cytokine rescue efficacy (CD8+ T cells) is reported as “weakest effects” and the half-life at 10 µM (in vitro) is reported as > 2 h.

With `Cc1nc(-c2ccc3ccccc3c2)c2ccn([C@@H]3O[C@H](COP(=O)(O)CP(=O)(O)O)[C@@H](O)[C@H]3O)c2n1` [18E.7] the cytokine rescue efficacy (CD8+ T cells) was “weakest effects” and the half-life at 10 µM (in vitro) was > 2 h.

In the case of `O=P(O)(O)CP(=O)(O)OC[C@H]1O[C@@H](n2ccc3c(-c4ccc5c(c4)CCCC5)nc(I)nc32)[C@H](O)[C@@H]1O` [27H.23, [(5-{[2-Iodo-4-(5,6,7,8-tetrahydronaphthalen-2-yl)-7H-pyrrolo[2,3-d]pyrimidin-7-yl]-β-D-ribofuranosyl}oxy)phosphonomethyl]phosphonic Acid], the half-life at 10 µM (in vitro) is reported as > 2 h.
